Data: US7009052B2, “Sulfonamide derivatives” (Warner Lambert Company LLC, priority 2003, dated 2006)

Biological target: T1, androgen receptor (Homo sapiens, UniProt P10275)
T1 sequence (P10275 1-920 Q868H): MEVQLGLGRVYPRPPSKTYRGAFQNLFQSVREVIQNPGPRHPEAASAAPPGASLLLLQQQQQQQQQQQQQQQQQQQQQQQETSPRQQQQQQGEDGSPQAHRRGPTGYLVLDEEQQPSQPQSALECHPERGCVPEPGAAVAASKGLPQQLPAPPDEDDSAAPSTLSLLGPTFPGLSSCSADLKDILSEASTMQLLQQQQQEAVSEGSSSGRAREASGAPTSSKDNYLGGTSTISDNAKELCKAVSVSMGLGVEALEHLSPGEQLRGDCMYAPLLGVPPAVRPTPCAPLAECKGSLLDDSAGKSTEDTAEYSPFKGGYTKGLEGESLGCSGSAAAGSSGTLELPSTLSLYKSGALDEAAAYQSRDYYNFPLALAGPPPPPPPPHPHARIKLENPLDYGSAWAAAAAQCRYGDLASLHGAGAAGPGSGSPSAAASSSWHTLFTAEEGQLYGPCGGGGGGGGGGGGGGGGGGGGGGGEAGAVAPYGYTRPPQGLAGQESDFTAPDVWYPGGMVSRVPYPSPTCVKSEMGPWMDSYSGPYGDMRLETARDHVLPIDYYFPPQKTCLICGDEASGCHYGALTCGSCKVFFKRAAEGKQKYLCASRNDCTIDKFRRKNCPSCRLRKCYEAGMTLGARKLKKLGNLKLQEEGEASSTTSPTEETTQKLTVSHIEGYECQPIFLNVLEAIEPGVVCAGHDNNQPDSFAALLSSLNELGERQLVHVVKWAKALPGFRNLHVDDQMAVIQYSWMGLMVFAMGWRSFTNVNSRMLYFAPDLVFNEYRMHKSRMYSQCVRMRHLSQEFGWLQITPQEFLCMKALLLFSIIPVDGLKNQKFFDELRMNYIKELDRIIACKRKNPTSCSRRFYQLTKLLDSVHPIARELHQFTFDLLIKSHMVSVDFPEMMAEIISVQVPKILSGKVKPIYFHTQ
Assay: AR Antagonist Cell Assay (MMTV-luciferase reporter, DHT-induced)
Type: cell-based
Details: MDA-MB453-MMTV clone 54-19 cells, 100 pM DHT, 17 hr
Description: The compounds ability to antagonize the effects of androgen on the androgen receptor were determined in the protocol described immediately below.
Experimental Procedure for AR Antagonist Cell Assay
Cell line: MDA-MB453-MMTV clone 54-19. This cell line is a stable transfected cell line with MDA-MB453 cell background (human breast tumor cell expressing high level of androgen receptor). A MMTV minimal promoter containing ARE was first cloned in front of a firefly luciferase reporter gene. Then the cascade was cloned into transfection vector pUV120puro. Electroporation method was used for transfecting MDA-MB-453 cell. Puromycin resistant stable cell line was selected.
Cell Culture Media and Reagents:
Culture medium: DMEM (high glucose, Gibco cat #: 11960-044), 10% FBS, and 1% L-glutamine
Plating medium: DMEM (phenol red free), 10% charcoal treated HyClone serum, 1% L-glutamine
Assay medium: DMEM (phenol red free), 1% charcoal treated HyClone serum, 1% L-glutamine, and 1% penicillin/streptomycin
3× luciferase buffer: 2% beta-mercaptoethanol, 0.6% ATP, 0.0135% luciferine in cell lysis buffer
• 1. Cells are maintained in culture medium, splitting cells when they reach 80–90% confluence • 2. To test compounds, 10,000 cells/well are plated to opaque 96 cell culture plate in 100 ul/well plating medium, culture for overnight at 37° C. in cell culture incubator • 3. Carefully remove plating medium, then add 80 ul/well of pre-warmed assay medium, add 10 ul/well testing compound (final concentration at 10 uM or 1 uM), incubate at 37° C. for 30 minutes • 4. Add 10 ul/well freshly prepared DHT (final concentration at 100 pM) to each well, incubate at 37° C. for 17 hr (overnight) • 5. Add 50 ul/well 3× luciferase buffer, incubate at room temperature for 5 minutes, then count on Luminometer The fold induction over background by 100 pM DHT in the absence of testing compounds is standardized as 100% and experimental result is expressed as percentage of inhibition by testing compounds. TABLE3

IC50 [µM] | SMILES
1.31 | O=c1cc(C(F)(F)F)c2cc(S(=O)(=O)N(CCO)Cc3ccccc3)ccc2[nH]1 [Example 71, 2-Oxo-4-trifluoromethyl-1,2-dihydroquinoline-6-sulfonic acidbenzyl(2-hydroxyethyl)amide]
0.55 | CCCN(CC1CC1)S(=O)(=O)c1ccc2[nH]c(=O)cc(C(F)(F)F)c2c1 [Example 73, 2-Oxo-4-trifluoromethyl-1,2-dihydroquinoline-6-sulfonic acidcyclopropylmethyl-propylamide]
5.72 | CN(C1CCCCC1)S(=O)(=O)c1ccc2[nH]c(=O)cc(C(F)(F)F)c2c1 [Example 75, 2-Oxo-4-trifluoromethyl-1,2-dihydroquinoline-6-sulfonic acidcyclohexylmethylamide]
1.04 | CN(CCC#N)S(=O)(=O)c1ccc2[nH]c(=O)cc(C(F)(F)F)c2c1 [Example 77, 2-Oxo-4-trifluoromethyl-1,2-dihydroquinoline-6-sulfonic acid(2-cyanoethyl)methylamide]
0.15 | CN(CCc1ccccc1)S(=O)(=O)c1ccc2[nH]c(=O)cc(C(F)(F)F)c2c1 [Example 78, 2-Oxo-4-trifluoromethyl-1,2-dihydroquinoline-6-sulfonic acidmethylphenethylamide]
0.39 | CCN(Cc1ccccc1)S(=O)(=O)c1ccc2[nH]c(=O)cc(C(F)(F)F)c2c1 [Example 79, 2-Oxo-4-trifluoromethyl-1,2-dihydroquinoline-6-suifonic acidbenzylethylamide]
> 10 | O=c1cc(C(F)(F)F)c2cc(S(=O)(=O)Nc3cccnc3)ccc2[nH]1 [Example 81, 2-Oxo-4-trifluoromethyl-1,2-dihydroquinoline-6-sulfonic acidpyridin-3-ylamide]
0.83 | Cc1cccc(NS(=O)(=O)c2ccc3[nH]c(=O)cc(C(F)(F)F)c3c2)c1 [Example 82, 2-Oxo-4-trifluoromethyl-1,2-dihydroquinoline-6-sulfonic acidm-tolylamide]
1.14 | Cc1ccc(NS(=O)(=O)c2ccc3[nH]c(=O)cc(C(F)(F)F)c3c2)cc1 [Example 83, 2-Oxo-4-trifluoromethyl-1,2-dihydroquinoline-6-sulfonic acidp-tolylamide]
7.08 | O=c1cc(C(F)(F)F)c2cc(S(=O)(=O)Nc3ccc(F)cc3)ccc2[nH]1 [Example 84, 2-Oxo-4-trifluoromethyl-1,2-dihydroquinoline-6-sulfonic acid(4-fluorophenyl)amide]
> 10 | Cc1cc(NS(=O)(=O)c2ccc3[nH]c(=O)cc(C(F)(F)F)c3c2)n(C)n1 [Example 85, 2-Oxo-4-trifluoromethyl-1,2-dihydroquinoline-6-sulfonic acid(2,5-dimethyl-2H-pyrazol-3-yl)amide]
0.45 | C#Cc1ccc(NS(=O)(=O)c2ccc3[nH]c(=O)cc(C(F)(F)F)c3c2)cc1 [Example 86, 2-Oxo-4-trifluoromethyl-1,2-dihydroquinoline-6-sulfonic acid(4-ethynylphenyl)amide]
3.55 | N#Cc1cccc(NS(=O)(=O)c2ccc3[nH]c(=O)cc(C(F)(F)F)c3c2)c1 [Example 87, 2-Oxo-4-trifluoromethyl-1,2-dihydroquinoline-6-sulfonic acid(3-cyanophenyl)amide]
0.13 | CCc1cccc(NS(=O)(=O)c2ccc3[nH]c(=O)cc(C(F)(F)F)c3c2)c1 [Example 88, 2-Oxo-4-trifluoromethyl-1,2-dihydroquinoline-6-sulfonic acid(3-ethylphenyl)amide]
0.36 | CCc1ccc(NS(=O)(=O)c2ccc3[nH]c(=O)cc(C(F)(F)F)c3c2)cc1 [Example 89, 2-Oxo-4-trifluoromethyl-1,2-dihydroquinoline-6-sulfonic acid(4-ethylphenyl)amide]

Second part, the molecule before the results:

SMILES | IC50 [µM]
Cn1c(=O)cc(C(F)(F)F)c2cc(S(=O)(=O)NCCc3c[nH]c4ccccc34)ccc21 [Example 60, 1-Methyl-2-oxo-4-trifluoromethyl-1,2-dihydroquinoline-6-sulfonicacid [2-(1H-indol-3-yl)ethyl]amide] | 6.33
Cn1c(=O)cc(C(F)(F)F)c2cc(S(=O)(=O)NCCSC(C)(C)C)ccc21 [Example 61, 1-Methyl-2-oxo-4-trifluoromethyl-1,2-dihydroquinoline-6-sulfonicacid (2-tert-butylsulfanylethyl)amide] | 1.53
Cn1c(=O)cc(C(F)(F)F)c2cc(S(=O)(=O)NCc3ccccc3C(F)(F)F)ccc21 [Example 62, 1-Methyl-2-oxo-4-trifluoromethyl-1,2-dihydroquinoline-6-sulfonicacid 2-trifluoromethyl-benzylamide] | 3.92
Cn1c(=O)cc(C(F)(F)F)c2cc(S(=O)(=O)NCCSCc3c(F)cccc3Cl)ccc21 [Example 63, 1-Methyl-2-oxo-4-trifluoromethyl-1,2-dihydroquinoline-6-sulfonicacid [2-(2-chloro-6-fluorobenzylsulfanyl)ethyl]-amide] | > 10
O=c1cc(C(F)(F)F)c2cc(S(=O)(=O)NCc3cccnc3)ccc2o1 [Example 64, 2-Oxo-4-trifluoromethyl-2H-chromene-6-sulfonic acid(pyridin-3-ylmethyl)amide] | > 10
CC(C)(NS(=O)(=O)c1ccc2oc(=O)cc(C(F)(F)F)c2c1)c1ccccc1 [Example 65, 2-Oxo-4-trifluoromethyl-2H-chromene-6-sulfonic acid (1-methyl-1-phenylethyl)amide] | > 10
CSc1ccccc1CNS(=O)(=O)c1ccc2oc(=O)cc(C(F)(F)F)c2c1 [Example 66, 2-Oxo-4-trifluoromethyl-2H-chromene-6-sulfonic acid 2-methylsulfanylbenzylamide] | > 10
O=c1cc(C(F)(F)F)c2cc(S(=O)(=O)NCCc3c[nH]c4ccccc34)ccc2o1 [Example 67, 2-Oxo-4-trifluoromethyl-2H-chromene-6-sulfonic acid [2-(1H-indol-3-yl)ethyl]amide] | > 10
CCCCN(CCCC)S(=O)(=O)c1ccc2[nH]c(=O)cc(C(F)(F)F)c2c1 [Example 68, 2-Oxo-4-trifluoromethyl-1,2-dihydroquinoline-6-sulfonic aciddibutylamide] | 0.41
CCCCN(CC)S(=O)(=O)c1ccc2[nH]c(=O)cc(C(F)(F)F)c2c1 [Example 69, 2-Oxo-4-trifluoromethyl-1,2-dihydroquinoline-6-sulfonic acidbutylethylamide] | 0.2
CC(C)N(C)S(=O)(=O)c1ccc2[nH]c(=O)cc(C(F)(F)F)c2c1 [Example 70, 2-Oxo-4-trifluoromethyl-1,2-dihydroquinoline-6-sulfonic acidisopropylmethylamide] | 0.55
CN(C)CCN(C)S(=O)(=O)c1ccc2[nH]c(=O)cc(C(F)(F)F)c2c1 [Example 72] | > 10
CCCCCN(CCO)S(=O)(=O)c1ccc2[nH]c(=O)cc(C(F)(F)F)c2c1 [Example 74, 2-Oxo-4-trifluoromethyl-1,2-dihydroquinoline-6-sulfonic acid(2-hydroxyethyl)-pentylamide] | 0.29
CCCCN(C)S(=O)(=O)c1ccc2[nH]c(=O)cc(C(F)(F)F)c2c1 [Example 76, 2-Oxo-4-trifluoromethyl-1,2-dihydroquinoline-6-sulfonic acidbutylmethylamide] | 0.21
COCCN(CCOC)S(=O)(=O)c1ccc2[nH]c(=O)cc(C(F)(F)F)c2c1 [Example 80, 2-Oxo-4-trifluoromethyl-1,2-dihydroquinoline-6-sulfonic acidbis(2-methoxyethyl)amide] | > 10
